Measured values: ChEMBL document CHEMBL5233251, “Epoxide containing molecules: A good or a bad drug design approach” (Eur J Med Chem, 2020)
In brackets after ≈: the same amount, converted by molar mass. Where a SMILES comes first, the peptide text is derived from it. [ ]: non-standard residue; d: D form. Aoe = N[C@@H](CCCCCC(=O)[C@@H]1CO1)C(=O)O

Key:
MCF7 = experiment: Cytotoxicity against human MCF7 cells incubated for 24 hrs by MTT assay; type: functional, cell-based; details: MCF7, 24 h
SF-295 [1] = experiment: Antiproliferative activity against human SF-295 cells assessed as inhibition of cell growth incubated for 72 hrs by MTT assay; type: functional, cell-based; details: SF-295, 72 h
HCT-116 [2] = experiment: Antiproliferative activity against human HCT-116 cells assessed as inhibition of cell growth at 25 ug/ml incubated for 72 hrs by MTT assay relative to control; type: functional; design: scale not given: the % may be the effect or the level left; details: dose 25 µg/ml
SF-295 [3] = experiment: Antiproliferative activity against human SF-295 cells assessed as inhibition of cell growth at 25 ug/ml incubated for 72 hrs by MTT assay relative to control; type: functional; design: scale not given: the % may be the effect or the level left; details: dose 25 µg/ml
Leishmania donovani = experiment: Antileishmanial activity against Leishmania donovani promastigotes; type: functional, organism-based
HCT-116 [4] = experiment: Antiproliferative activity against human HCT-116 cells assessed as inhibition of cell growth incubated for 72 hrs by MTT assay; type: functional, cell-based; details: HCT-116, 72 h
OVCAR-8 [5] = experiment: Antiproliferative activity against human OVCAR-8 cells assessed as inhibition of cell growth incubated for 72 hrs by MTT assay; type: functional, cell-based; details: OVCAR-8, 72 h
OVCAR-8 [6] = experiment: Antiproliferative activity against human OVCAR-8 cells assessed as inhibition of cell growth at 25 ug/ml incubated for 72 hrs by MTT assay relative to control; type: functional; design: scale not given: the % may be the effect or the level left; details: dose 25 µg/ml
HL-60 = experiment: Antiproliferative activity against human HL-60 cells assessed as inhibition of cell growth incubated for 72 hrs by MTT assay; type: functional, cell-based; details: HL-60, 72 h
SW480 = experiment: Induction of apoptosis in human SW480 cells assessed as accumulation of cells at 5 uM incubated for 24 hrs by Acridine orange/ethidium bromide staining based fluorescent microscopic analysis (reference value: 13.6%); type: functional
Sarcoma-180 [7] = experiment: Antitumor activity against mouse Sarcoma-180 cells ascitic form implanted in ICR mouse assessed as T/C ratio at 100 mg/kg, ip administered from day 1 to 5 and measured after 60 days; type: functional; details: time 60 day
[8] = Antitumor activity against IMC (unknown origin) cells xenografted in CDF1 mouse assessed as T/C ratio at 200 mg/kg, ip administered from day 1 to 5 and measured after 60 days; type: functional; details: time 60 day
Sarcoma-180 [9] = experiment: Antitumor activity against mouse Sarcoma-180 cells solid form implanted in ICR mouse assessed as T/C ratio at 12.5 mg/kg, ip administered from day 1 to 5 and measured after 60 days; type: functional; details: time 60 day
B16 = experiment: Antitumor activity against mouse B16 cells implanted in BDF1 mouse assessed as T/C ratio at 25 mg/kg, ip administered from day 1 to 5 and measured after 60 days; type: functional; details: time 60 day
Ehrlich = experiment: Antitumor activity against mouse Ehrlich cells implanted in ddY mouse assessed as T/C ratio at 70 mg/kg administered for 9 to 10 days; type: functional; details: time 9-10 day
BE(2)-C = experiment: Antiproliferative activity against human BE2C cells assessed as inhibition of cell growth by tryphan blue exclusion assay; type: functional, cell-based
T47D = experiment: Antiproliferative activity against human T47D cells assessed as inhibition of cell proliferation incubated for 72 hrs by DAPI staining based flow cytometric analysis; type: functional
[10] = Antiproliferative activity against human SH-EP cells assessed as inhibition of cell growth by tryphan blue exclusion assay; type: functional, cell-based
[11] = Cytotoxicity against human DeFew cells assessed as inhibition of cell proliferation incubated for 72 hrs by MTT assay; type: functional, cell-based
MIA PaCa-2 = experiment: Cytotoxicity against human MIA PaCa-2 cells assessed as inhibition of cell proliferation incubated for 72 hrs by MTT assay; type: functional, cell-based
HUVEC = experiment: (§1) Cytotoxicity against HUVEC cells assessed as inhibition of cell growth incubated for 72 hrs by MTT assay; type: toxicity, cell-based, Homo sapiens; details: huvec
[12] = as §1; type: toxicity, cell-based, Homo sapiens; details: human, HUVEC cells
SK-MES-1 = experiment: Antiproliferative activity against human SK-MES-1 cells assessed as reduction in cell viability incubated for 72 hrs by MTT assay; type: functional, cell-based; details: SK-MES-1, 72 h
NCI-H460 = experiment: Antiproliferative activity against human NCI-H460 cells assessed as reduction in cell viability incubated for 72 hrs by MTT assay; type: functional, cell-based; details: NCI-H460, 72 h
Calu-3 = experiment: Antiproliferative activity against human Calu-3 cells assessed as reduction in cell viability incubated for 72 hrs by MTT assay; type: functional, cell-based; details: Calu-3, 72 h
A549 = experiment: Antiproliferative activity against human A549 cells assessed as reduction in cell viability incubated for 72 hrs by MTT assay; type: functional, cell-based; details: A549, 72 h
NCI-H1299 = experiment: Antiproliferative activity against human NCI-H1299 cells assessed as reduction in cell viability incubated for 72 hrs by MTT assay; type: functional, cell-based; details: NCI-H1299, 72 h
[13] = Cytotoxicity against human BEAS-2B assessed as reduction in cell viability incubated for 72 hrs by MTT assay; type: toxicity, cell-based; details: BEAS-2B cells
[14] = Induction of apoptosis in human multiple myeloma cell; type: functional, cell-based
DOHH-2 = experiment: Antitumor activity against human DOHH-2 cells assessed as reduction in cell viability; type: functional, cell-based
SUD4 = experiment: Antitumor activity against human SU-DHL-4 cells assessed as reduction in cell viability; type: functional, cell-based
RPMI-8226 = experiment: Antitumor activity against human RPMI-8226 cells assessed as reduction in cell viability; type: functional, cell-based
[15] = Antitumor activity against human INA-6 cells assessed as reduction in cell viability; type: functional, cell-based

For COc1cc(CNC(=O)CCCCC2OC2C(C)C)ccc1O (stereo not given), the IC50 (MCF7) was 50 µM.
Work on C[C@]1([C@H]2CC=C(C=O)CC2)CO1 yielded an IC50 (SF-295 [1]) of 1.03 µg/mL (≈ 6.2 µM), an Activity (HCT-116 [2]) of 96.32% and an Activity (SF-295 [3]) of 96.32%. It also gave an IC50 (Leishmania donovani) of 3.87 µg/mL (≈ 23.3 µM), an IC50 (HCT-116 [4]) of 1.03 µg/mL (≈ 6.2 µM) and an IC50 (OVCAR-8 [5]) of 1.03 µg/mL (≈ 6.2 µM). For the same molecule, the Activity (OVCAR-8 [6]) was 96.32% and the IC50 (HL-60) was 1.03 µg/mL (≈ 6.2 µM).
Molecule C[C@H]1C(=O)OC([C@@H](O)[C@](C)(O)[C@H]2[C@@H](O)C[C@H]3[C@@H]4C[C@H]5O[C@]56[C@@H](O)C=CC(=O)[C@]6(C)[C@H]4CC[C@]23C)[C@@H]1C (stereo not given in full) has an Activity (SW480) of 33.8%.
Work on CO[C@H]1[C@@H](OC)C[C@H](C)[C@@H](OC)C2=CC(=O)C(N3CCN(C)CC3)=C(NC(=O)/C(C)=C/C=C\[C@H](OC)[C@H](OC(N)=O)C3(C)CC3[C@@H]1C)C2=O (stereo not given in full) yielded a T/C (Sarcoma-180 [7]) of 200%, a T/C [8] of 358% and a T/C (Sarcoma-180 [9]) of 167%. For the same molecule, the T/C (B16) was 155% and the T/C (Ehrlich) was 141%.
For C[C@@H]1NC(=O)[C@@H](C)NC(=O)[C@H](CCCCCC(=O)[C@@H]2CO2)NC(=O)[C@H]2CCCN2C1=O (cyclo(A[dP][Aoe][dA])), the IC50 (BE(2)-C) was 0.015 µM, the IC50 (T47D) was 0.037 µM and the IC50 [10] was 0.018 µM.
With CC(C)=CCCC1(C)OC1C=O (stereo in doubt; 10a) the IC50 ([11]; defew) was 45 µM, the IC50 (MIA PaCa-2; mia paca-2) was 88.7 µM and the IC50 (HUVEC) was 200 µM.
In the case of CC(C)=CCCC1(C)OC1C=O (stereo in doubt; 10b), the IC50 ([11]; Homo sapiens, DeFew, 72 h) is reported as 89 µM, the IC50 (MIA PaCa-2; Homo sapiens, MIA PaCa-2, 72 h) is reported as 94 µM and the IC50 at 72 h [12] is reported as 162 µM.
Molecule CC(=O)O[C@H]1[C@H]2O[C@]23[C@@H]2CC[C@@H]4C[C@@H](O)CC[C@]4(C)[C@H]2CC[C@]3(C)[C@H]1c1ccc(=O)oc1 [CINOBUFAGIN] has an IC50 (SK-MES-1) of 2.3 µM, an IC50 (NCI-H460) of 2.3 µM and an IC50 (Calu-3) of 2.3 µM. The IC50 (A549) was 2.3 µM, the IC50 (NCI-H1299) was 2.3 µM and the IC50 at 72 h [13] was 22.3 µM.
CC1=C(O)C(=O)c2c(ccc(O)c2O)C1=O [DIONCOQUINONE B] gave an EC50 [14] of 11 µM, an EC50 (DOHH-2) of 7.6 µM and an EC50 (SUD4) of 7.6 µM. It also gave an EC50 (RPMI-8226) of 7.6 µM and an EC50 [15] of 7.6 µM.
